The compounds below were run on LEF/TCF transcription factor reporter (TOPFlash) (assay: TOPFlash reporter assay in HEK293 cells). Conditions: Homo sapiens, read-out: TopFlash assay: IC50.
Format: cell-based
Procedure: To obtain a Frizzled1-GFP stable cell line (Fzd1GFP-U2OS), U2OS cells were transfected with pCS2ratFrizzled1-GFP and pLKO.1 (10:1 ratio by weight), using the Nucleofection transfection protocol from Amaxa, and stable receptor expressing clones were selected using 1.5 μg/mL puromycin in the culture medium. For generating TOPFlash stable cell lines, HEK293 cells were transfected with p8xTOPFlash, the Renilla luciferase plasmid, and pLKO.1 at a ratio by weight of 10:3:1 and stable clones selected using 1 μg/mL puromycin in the growth medium. pLKO.1 was used to confer puromycin resistance to the stable clones.
For the TOPFlash Luciferase assay the TOPFlash stable cells were seeded in 150 μL growing medium/well in 96-well plates at 100% confluency. Fifty microliters of conditioned medium containing the chemical compounds to be tested or DMSO were added to each well. After an 8 hr treatment, the cells were then washed once with PBS, and lysed with 80 μL MPER solution (Pierce, Rockford, Ill.). Thirty microliters of cell lysate were used for measuring luciferase activity in a 96-well plate reader (FluoStar Optima, BMG Labtech, Chicago, Ill.).
LEF/TCF transcription factor reporter (TOPFlash) assay is a general readout for canonical Wnt signaling pathways. […] A Renila luciferase plasmid was also generated to serve as an internal control.
The average TOPFlash reporter activity of Wnt3A plus DMSO treatment was set as 100%, and the relative reporter activity of Wnt3A plus the indicated concentration of niclosmide was calculated and plotted.
The compounds shown in Table 2 were purchased from Sigma-Aldrich (St. Louis, Mo.) or Chembridge (San Diego, Calif.). The activity of each of the compounds as a negative modulator of the Wnt/Frizzled signaling pathway was examined using the Top-flash assay, as described above.

Structure (SMILES)	IC50 [µM]
O=C(Nc1ccc([N+](=O)[O-])cc1Cl)c1cc(Cl)cc(Cl)c1O [Compound 3-3, 3,5-dichloro-N-(2-chloro-4-nitrophenyl)-2-hydroxybenzamide]	1 to 12.5
O=C(Nc1ccc(Oc2ccc(Cl)cc2)c(Cl)c1)c1cc(I)cc(I)c1O [Compound 2-2, Rafoxanide]	> 12.5
Nc1ccc(NC(=O)c2cc(Cl)ccc2O)c(Cl)c1 [Compound 1-2, N-(4-amino-2-chlorophenyl)-5-chloro-2-hydroxybenzamide]	> 12.5
O=C(Nc1ccc(Br)cc1)c1cc(Br)cc(Br)c1O [Compound 2-4, 3,5-dibromo-N-(4-bromophenyl)-2-hydroxybenzamide]	> 12.5
CS(=O)(=O)c1ccc(NC(=O)c2cc(Cl)ccc2O)c(Cl)c1 [Compound 3-11, 5-chloro-N-[2-chloro-4-(methylsulfonyl)phenyl]-2-hydroxybenzamide]	> 12.5
O=C(Nc1ccc([N+](=O)[O-])cc1Br)c1ccccc1O [Compound 3-7, N-(2-bromo-4-nitrophenyl)-2-hydroxybenzamide]	1 to 12.5
Cc1cc(C(C#N)c2ccc(Cl)cc2)c(Cl)cc1NC(=O)c1cc(I)cc(I)c1O (stereo not shown) [Compound 2-3, Closantel]	> 12.5
COc1cc([N+](=O)[O-])ccc1NC(=O)c1cc(Cl)ccc1O [Compound 3-9, 5-chloro-2-hydroxy-N-(2-methoxy-4-nitrophenyl)benzamide]	< 1
COc1ccc(Cl)cc1C(=O)Nc1ccc([N+](=O)[O-])cc1Cl [Compound 1-6, Benzamide, 5-chloro-N-(2-chloro-4-nitrophenyl)-2-methoxy-]	> 12.5
O=C(Nc1ccc([N+](=O)[O-])cc1Cl)c1cc(Br)ccc1O [Compound 3-4, 5-bromo-N-(2-chloro-4-nitrophenyl)-2-hydroxybenzamide]	< 1
Cc1cc([N+](=O)[O-])c(Cl)cc1NC(=O)c1ccccc1O [Compound 3-2, N-(5-chloro-2-methyl-4-nitrophenyl)-2-hydroxybenzamide]	< 1
O=C(Nc1ccc([N+](=O)[O-])cc1)c1cc(Cl)ccc1O [Compound 1-4, 5-chloro-2-hydroxy-N-(4-nitrophenyl)benzamide]	< 1
O=C1c2ccc([N+](=O)[O-])cc2C(=O)N1c1cc(Cl)ccc1O [Compound 3-6, 2-(5-chloro-2-hydroxyphenyl)-5-nitro-1H-isoindole-1,3(2H)-dione]	> 12.5
O=C(Nc1ccc(NS(=O)(=O)c2ccc(Cl)cc2)cc1Cl)c1cc(Cl)ccc1O [Compound 3-1, 5-chloro-N-(2-chloro-4-{[(4-chlorophenyl)sulfonyl]amino}phenyl)-2-hydroxybenzamide]	> 12.5
O=C(Nc1cc(Cl)ccc1O)c1ccc([N+](=O)[O-])cc1 [Compound 3-10, N-(5-chloro-2-hydroxyphenyl)-4-nitrobenzamide]	> 12.5
O=C(Nc1ccc([N+](=O)[O-])cc1)c1cc(Br)ccc1O [Compound 3-5, 5-bromo-2-hydroxy-N-(4-nitrophenyl)benzamide]	< 1
O=C(Nc1ccc([N+](=O)[O-])cc1Cl)c1ccccc1O [Compound 3-8, N-(2-chloro-4-nitrophenyl)-2-hydroxybenzamide]	1 to 12.5
O=C(Nc1ccc([N+](=O)[O-])cc1Cl)c1cccc(Cl)c1 [Compound 1-7, Benzamide, 3-chloro-N-(2-chloro-4-nitrophenyl)-]	> 12.5
O=C(Nc1cc(Cl)cc(Cl)c1O)c1c(O)c(Cl)cc(Cl)c1Cl [Compound 2-1, Oxyclozanide]	> 12.5
